Values quoted from earlier work in patent publication US12642772B2, “Triptolide formulations” (MINNEAMRITA THERAPEUTICS LLC, priority 2024, dated 2026).

- solubility in water: approximately 0.017 mg/mL
Compound: CC(C)[C@]12O[C@H]1[C@@H]1O[C@]13[C@]1(O[C@H]1C[C@H]1C4=C(CC[C@@]13C)C(=O)OC4)[C@@H]2O [triptolide, Triptolide]
